Tested on: SEM cells
Experiment: cell viability relative to DMSO control; higher = less cytotoxic
Conditions: 48 h
In short: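 Cells were incubated for 48 h at 37°C before CellTiter-Glo One luminescence was read. The cells were NOMO1 or SEM (500 cells/well) or P12-Ichikawa (1000 cells/well) leukemia cells, adapted for at least four passages in each medium and seeded in 1536-well plates (5 μl). Dosing used library compounds in DMSO applied by pin over 11 threefold points, 47 μM to 0.79 nM. Viability is the per-plate percentage of DMSO wells, with cell-free wells as background.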

[1] = HPLM + 10% dialyzed FBS, 0.000781 µM
[2] = HPLM + 10% dialyzed FBS, 0.00234 µM
[3] = HPLM + 10% dialyzed FBS, 0.00702 µM
[4] = HPLM + 10% dialyzed FBS, 0.0211 µM
[5] = HPLM + 10% dialyzed FBS, 0.0632 µM
[6] = HPLM + 10% dialyzed FBS, 0.19 µM
[7] = HPLM + 10% dialyzed FBS, 0.569 µM
[8] = HPLM + 10% dialyzed FBS, 1.71 µM
[9] = HPLM + 10% dialyzed FBS, 5.12 µM
[10] = HPLM + 10% dialyzed FBS, 15.4 µM
[11] = HPLM + 10% dialyzed FBS, 46.1 µM
[12] = RPMI 5 mM glucose + 10% FBS, 0.000781 µM
[13] = RPMI 5 mM glucose + 10% FBS, 0.00234 µM
[14] = RPMI 5 mM glucose + 10% FBS, 0.00702 µM
[15] = RPMI 5 mM glucose + 10% FBS, 0.0211 µM
[16] = RPMI 5 mM glucose + 10% FBS, 0.0632 µM
[17] = RPMI 5 mM glucose + 10% FBS, 0.19 µM
[18] = RPMI 5 mM glucose + 10% FBS, 0.569 µM
[19] = RPMI 5 mM glucose + 10% FBS, 1.71 µM
[20] = RPMI 5 mM glucose + 10% FBS, 5.12 µM
[21] = RPMI 5 mM glucose + 10% FBS, 15.4 µM
[22] = RPMI 5 mM glucose + 10% FBS, 46.1 µM
[23] = RPMI 5 mM glucose + 10% dialyzed FBS, 0.000781 µM
[24] = RPMI 5 mM glucose + 10% dialyzed FBS, 0.00234 µM
[25] = RPMI 5 mM glucose + 10% dialyzed FBS, 0.00702 µM
[26] = RPMI 5 mM glucose + 10% dialyzed FBS, 0.0211 µM
[27] = RPMI 5 mM glucose + 10% dialyzed FBS, 0.0632 µM
[28] = RPMI 5 mM glucose + 10% dialyzed FBS, 0.19 µM
[29] = RPMI 5 mM glucose + 10% dialyzed FBS, 0.569 µM
[30] = RPMI 5 mM glucose + 10% dialyzed FBS, 1.71 µM
[31] = RPMI 5 mM glucose + 10% dialyzed FBS, 5.12 µM
[32] = RPMI 5 mM glucose + 10% dialyzed FBS, 15.4 µM
[33] = RPMI 5 mM glucose + 10% dialyzed FBS, 46.1 µM

| SMILES | cell viability [1] [%] | cell viability [2] [%] | cell viability [3] [%] | cell viability [4] [%] | cell viability [5] [%] | cell viability [6] [%] | cell viability [7] [%] | cell viability [8] [%] | cell viability [9] [%] | cell viability [10] [%] | cell viability [11] [%] | cell viability [12] [%] | cell viability [13] [%] | cell viability [14] [%] | cell viability [15] [%] | cell viability [16] [%] | cell viability [17] [%] | cell viability [18] [%] | cell viability [19] [%] | cell viability [20] [%] | cell viability [21] [%] | cell viability [22] [%] | cell viability [23] [%] | cell viability [24] [%] | cell viability [25] [%] | cell viability [26] [%] | cell viability [27] [%] | cell viability [28] [%] | cell viability [29] [%] | cell viability [30] [%] | cell viability [31] [%] | cell viability [32] [%] | cell viability [33] [%] |
| --- | --- | --- | --- | --- | --- | --- | --- | --- | --- | --- | --- | --- | --- | --- | --- | --- | --- | --- | --- | --- | --- | --- | --- | --- | --- | --- | --- | --- | --- | --- | --- | --- | --- |
| CCN(CCO)CCCC(C)Nc1ccnc2cc(Cl)ccc12 (configuration not stated) | 102 | 93.8 | 114 | 76.2 | 105 | 118 | 5.95 | 95 | 106 | 62.6 | 49.9 | 105 | 102 | 117 | 93 | 102 | 108 | 6.8 | 78.2 | 104 | 64.8 | 42.5 | 98.4 | 80.5 | 104 | 82.5 | 107 | 99.6 | 5.67 | 66 | 100 | 52.1 | 37.2 |
| Cc1nc(C(=O)NCC(=O)O)c(O)c2ccc(Oc3ccccc3)cc12 | 109 | 109 | 115 | 112 | 116 | 108 | 99.5 | 115 | 92.8 | 102 | 112 | 101 | 108 | 112 | 115 | 103 | 99.4 | 95.7 | 94.8 | 104 | 108 | 99.2 | 113 | 112 | 123 | 116 | 119 | 112 | 113 | 113 | 103 | 115 | 122 |
| COc1cc2nc(N3CCN(C(=O)c4ccco4)CC3)nc(N)c2cc1OC | 54.4 | 61.9 | 81.8 | 86.4 | 89.7 | 85.8 | 73 | 91.9 | 87 | 16.4 | 13.6 | 76.2 | 78.4 | 90.6 | 80.6 | 104 | 96.2 | 98.4 | 101 | 105 | 13.5 | 8.2 | 78.2 | 88.3 | 93.8 | 104 | 109 | 81.2 | 91 | 91.4 | 80.2 | 14 | 11.9 |
| CC[C@@H](C)[C@H](NC(=O)[C@H](CC1CCCCC1)NC(=O)c1ccno1)C(=O)N1CCC2(CCc3ccccc32)CC1 | 41.9 | 88.3 | 78.3 | 86 | 65.4 | 86.3 | 83.7 | 87.1 | 93.1 | 82.6 | 70.3 | 49.4 | 102 | 103 | 89.2 | 67.5 | 71.5 | 88 | 73.7 | 79.3 | 73.8 | 81.3 | 55.4 | 111 | 99.2 | 105 | 83.6 | 99.1 | 82.1 | 99.1 | 95.6 | 93.9 | 91.9 |
| CO[C@H]1C[C@H]2OC[C@@]2(OC(C)=O)[C@H]3[C@H](OC(=O)C4=CC=CC=C4)[C@]5(O)C[C@H](OC(=O)[C@H](O)[C@@H](NC(=O)OC(C)(C)C)C6=CC=CC=C6)/C(=C(/[C@@H](OC)C(=O)[C@]13C)C5(C)C)C | 61.3 | 70.2 | 80.6 | 15.4 | 16.5 | 17.7 | 16 | 15 | 18.1 | 13.6 | 15.8 | 89.4 | 96.1 | 11.1 | 9.9 | 12.3 | 14 | 11.2 | 15.1 | 12.7 | 13.2 | 13.4 | 64 | 61.2 | 80.6 | 11.2 | 13.9 | 13.5 | 14.1 | 13.7 | 13.2 | 11.6 | 11.8 |
| CC/C(=C(\c1ccccc1)c1ccc(OCCN(C)C)cc1)c1ccccc1 | 80.9 | 97.6 | 107 | 103 | 74.6 | 102 | 94 | 108 | 96.3 | 86.2 | 16.8 | 98.1 | 99.7 | 95.8 | 93.8 | 66.7 | 95 | 99.2 | 99.9 | 90.5 | 91.6 | 12.5 | 87.4 | 87.2 | 102 | 95.2 | 81.7 | 115 | 99.4 | 96.3 | 95.2 | 93.9 | 13 |
| CN1CCN(c2cc(C(=O)Nc3ccc4c(c3)-c3c(c(C(N)=O)nn3-c3ccc(F)cc3)CC4)c(Cl)cn2)CC1 | 93.3 | 95.7 | 103 | 109 | 116 | 110 | 105 | 103 | 110 | 81.8 | 4.03 | – | – | – | – | – | – | – | – | – | – | – | 125 | 109 | 121 | 131 | 138 | 120 | 103 | 104 | 109 | 106 | 3.39 |
| CCc1nc(C(N)=O)c(Nc2ccc(N3CCC(N4CCN(C)CC4)CC3)c(OC)c2)nc1NC1CCOCC1 | 92.9 | 105 | 120 | 104 | 95.5 | 65 | 42.9 | 36.3 | 21.1 | 17.8 | 14.6 | – | – | – | – | – | – | – | – | – | – | – | 115 | 97.9 | 138 | 139 | 94 | 69.6 | 43 | 33.1 | 17 | 18.3 | 12.2 |
